Test results as given in ChEMBL document CHEMBL1130464, “Analogues of trichosatin a and trapoxin B as histone deacetylase inhibitors” (Bioorg Med Chem Lett, 1997).

What was measured:
[1] = target: T1, Histone deacetylase HD2 (Zea mays) (UniProt Q94F81); experiment: Inhibitory concentration against deacetylase HD2 enzyme of maize at 30 uM
T1 sequence (whole entry): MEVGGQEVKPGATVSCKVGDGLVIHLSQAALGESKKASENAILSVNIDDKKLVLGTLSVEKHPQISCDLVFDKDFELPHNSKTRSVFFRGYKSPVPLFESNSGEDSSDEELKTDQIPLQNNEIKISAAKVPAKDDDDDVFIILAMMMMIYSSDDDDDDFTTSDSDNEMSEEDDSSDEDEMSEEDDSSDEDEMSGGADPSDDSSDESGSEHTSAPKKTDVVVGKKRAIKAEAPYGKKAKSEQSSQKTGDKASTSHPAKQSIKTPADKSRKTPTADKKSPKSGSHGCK

[2] = target: T1, Histone deacetylase HD2 (Zea mays)

inhibition [1] [%]	IC90 [2] [nM]	Structure (SMILES)
82	–	O=C(CCCCCCC(=O)N[C@@H](Cc1ccccc1)C(=O)O)NO
94	–	CN(C)c1ccc(C(=O)NCCCCCC(=O)NO)cc1
–	100	CC(/C=C/C(=O)NO)=C\[C@@H](C)C(=O)c1ccc(N(C)C)cc1
76	–	COC(=O)[C@H](Cc1ccccc1)NC(=O)CCCCCCC(=O)NO
